# Activity calls are given as the source filed them. The calls are words filed in the database; no cut-off is given here.
# Legend:
# [1] = Metabolic stability in human plasma assessed as half life measured upto 120 mins by LC-MS/MS analysis; format: ADME, cell-free
# [2] = Metabolic stability in human plasma after 15 mins by LC-MS/MS analysis; format: ADME, cell-free; conditions: 0.25 h, BLD = below limit of detection
# [3] = Metabolic stability in human plasma measured upto 120 mins by LC-MS/MS analysis; format: ADME, cell-free; conditions: 2 h
# Influenza A virus [4] = experiment: Inhibition of Influenza A virus RdRp activity assessed as reduction in Fluc/Rluc ratio at 0.1 to 10 uM; conditions: dose 0.1-10 µM
# Influenza A virus [5] = experiment: Antiviral activity against Influenza A virus H1N1 (A/Puerto Rico/8/34) infected in MDCK cells assessed as reduction in NP protein level at 1 uM in presence of 1000 uM rNTP by Western blot analysis; format: functional, organism-based
# Influenza A virus [6] = experiment: Antiviral activity against Influenza A virus H1N1 (A/Puerto Rico/8/34) infected in MDCK cells assessed as reduction in virus-induced cytopathic effect incubated for 48 hrs by CCK8 assay; format: functional, organism-based
# [7] = Toxicity in BALB/c mouse assessed as animal death at 1 g/kg, IG administered 3 times per day and measured for 14 days; conditions: in vivo, po, 1000 mg/kg, 336 h, time 14 day
# [8] = Metabolic stability in human liver microsomes assessed as hepatic extraction ratio preincubated for 5 mins followed by NADPH addition and measured upto 45 mins by LC-MS analysis; format: ADME, Microsome; conditions: time < 50 min
# Influenza A virus [9] = experiment: Antiviral activity against Influenza A virus H1N1 (A/Puerto Rico/8/34) infected in MDCK cells assessed as reduction in nucleocapsid protein level by Western blot analysis; format: functional, organism-based; conditions: dose 2-125 nM
# [10] = Cmax in Sprague-Dawley rat at 10 mg/kg, po measured up to 24 hrs by LC-MS analysis; format: ADME, organism-based; conditions: in vivo
# Influenza A virus [11] = experiment: Antiviral activity against Influenza A virus H1N1 (A/Puerto Rico/8/34) infected in BALB/c mouse at 100 mg/kg/day, po administered twice daily for 7 days and measured after 14 days; format: functional; conditions: time 14 day
# [12] = Toxicity in BALB/c mouse assessed as body weight loss at 1 g/kg, IG administered 3 times per day and measured on day 4 to 9; conditions: in vivo, po, 1000 mg/kg, time 4-9 day
# [13] = Metabolic stability in human liver microsomes assessed as half life preincubated for 5 mins followed by NADPH addition and measured upto 45 mins by LC-MS analysis; format: ADME, Microsome; conditions: time < 50 min
# [14] = Metabolic stability in dog liver microsomes assessed as intrinsic clearance preincubated for 5 mins followed by NADPH addition and measured upto 45 mins by LC-MS analysis; format: ADME, Canis lupus familiaris, Microsome; conditions: time < 50 min, read-out: CLH
# Influenza A virus [15] = experiment: Antiviral activity against Influenza A virus H1N1 (A/Puerto Rico/8/34) infected in MDCK cells assessed as reduction in NP protein level at 1 uM in presence of rNTP by Western blot analysis; format: functional, organism-based
# Influenza A virus [16] = experiment: Antiviral activity against Influenza A virus H1N1 (A/Puerto Rico/8/34) infected in MDCK cells assessed as reduction in NP viral RNA level at 1 uM treated at 4 hrs post infection by qRT-PCR analysis; format: functional, organism-based
# [17] = Tmax in Sprague-Dawley rat at 10 mg/kg, po measured up to 24 hrs by LC-MS analysis; format: ADME, organism-based; conditions: in vivo
# [18] = Cytotoxicity against MDCK cells by CCK-8 assay; format: toxicity, cell-based, Canis lupus familiaris; conditions: dog
# [19] = Toxicity in BALB/c mouse assessed as body weight loss at 1 g/kg, IG administered 3 times per day; conditions: in vivo, po, 1000 mg/kg
# [20] = AUC(0 to infinity) in Sprague-Dawley rat at 3 mg/kg, iv measured up to 24 hrs by LC-MS analysis; format: ADME, organism-based; conditions: Sprague-Dawley, in vivo
# [21] = Toxicity in BALB/c mouse assessed as lethargy at 1 g/kg, IG administered 3 times per day and measured for 14 days; conditions: in vivo, po, 1000 mg/kg, 336 h, time 14 day
# [22] = Metabolic stability in dog liver microsomes assessed as half life preincubated for 5 mins followed by NADPH addition and measured upto 45 mins by LC-MS analysis; format: ADME, Canis lupus familiaris, Microsome; conditions: time < 50 min
# [23] = Metabolic stability in mouse liver microsomes assessed as intrinsic clearance preincubated for 5 mins followed by NADPH addition and measured upto 45 mins by LC-MS analysis; format: ADME, Microsome; conditions: time < 50 min, read-out: CLH
# [24] = AUC(0 to t) in Sprague-Dawley rat at 10 mg/kg, po measured up to 24 hrs by LC-MS analysis; format: ADME, organism-based; conditions: in vivo
# Influenza A virus [25] = experiment: Antiviral activity against Influenza A virus H1N1 (A/Puerto Rico/8/34) infected in MDCK cells assessed as reduction in NP protein level at 1 uM in presence of rUTP by Western blot analysis; format: functional, organism-based
# Influenza A virus [26] = experiment: Antiviral activity against Influenza A virus H1N1 (A/Puerto Rico/8/34) infected in MDCK cells assessed as reduction in NP protein level at 1 uM treated at 4 hrs post infection by Western blot analysis; format: functional, organism-based
# [27] = Metabolic stability in human liver microsomes assessed as intrinsic clearance preincubated for 5 mins followed by NADPH addition and measured upto 45 mins by LC-MS analysis; format: ADME, Microsome; conditions: time < 50 min, read-out: CLH
# [28] = Metabolic stability in mouse liver microsomes assessed as hepatic extraction ratio preincubated for 5 mins followed by NADPH addition and measured upto 45 mins by LC-MS analysis; format: ADME, Microsome; conditions: time < 50 min
# [29] = Metabolic stability in human plasma assessed as remaining compound measured upto 120 mins by LC-MS/MS analysis; format: ADME, cell-free; conditions: read-out: Stability
# [30] = Half life in Sprague-Dawley rat at 3 mg/kg, iv measured up to 24 hrs by LC-MS analysis; format: ADME, organism-based; conditions: in vivo
# [31] = Clearance in Sprague-Dawley rat at 3 mg/kg, iv measured up to 24 hrs by LC-MS analysis; format: ADME, organism-based; conditions: in vivo
# [32] = Metabolic stability in dog liver microsomes assessed as hepatic clearance preincubated for 5 mins followed by NADPH addition and measured upto 45 mins by LC-MS analysis; format: ADME, Canis lupus familiaris, Microsome; conditions: time < 50 min
# [33] = Tmax in Sprague-Dawley rat at 3 mg/kg, iv measured up to 24 hrs by LC-MS analysis; format: ADME, organism-based; conditions: in vivo
# [34] = Selectivity index, ratio of CC50 for MDCK cells to EC50 for antiviral activity against Influenza A virus H1N1 (A/Puerto Rico/8/34) infected in MDCK cells; format: toxicity, cell-based; conditions: dog, read-out: Ratio CC50/EC50
# Influenza A virus [35] = experiment: Antiviral activity against Influenza A virus H1N1 (A/Puerto Rico/8/34) infected in MDCK cells assessed as reduction in NP protein level at 1 uM in presence of 125 uM rNTP by Western blot analysis; format: functional, organism-based
# Influenza B virus [36] = experiment: Antiviral activity against influenza B virus B/Yamagata/16/88 infected in MDCK cells; format: functional, organism-based; conditions: B/Yamagata/16/88, MDCK
# [37] = Toxicity in BALB/c mouse assessed as anorexia at 1 g/kg, IG administered 3 times per day and measured for 14 days; conditions: in vivo, po, 1000 mg/kg, 336 h, time 14 day
# [38] = AUC(0 to infinity) in Sprague-Dawley rat at 10 mg/kg, po measured up to 24 hrs by LC-MS analysis; format: ADME, organism-based; conditions: in vivo
# Influenza A virus [39] = experiment: Antiviral activity against Influenza A virus H1N1 (A/Puerto Rico/8/34) infected in MDCK cells assessed as reduction in viral proliferation at 20 nM pre-infected with virus for 1 hr followed by compound addition and measured after 48 hrs by crystal violet staining based plaque formation assay; format: functional, organism-based
# [40] = Half life in Sprague-Dawley rat at 10 mg/kg, po measured up to 24 hrs by LC-MS analysis; format: ADME, organism-based; conditions: in vivo
# Influenza B virus [41] = experiment: Antiviral activity against influenza B virus Victoria/2/87 infected in MDCK cells; format: functional, organism-based; conditions: Victoria/2/87, MDCK
# [42] = Metabolic stability in mouse liver microsomes assessed as hepatic clearance preincubated for 5 mins followed by NADPH addition and measured upto 45 mins by LC-MS analysis; format: ADME, Microsome; conditions: time < 50 min
# Influenza A virus [43] = experiment: Antiviral activity against Influenza A virus H1N1 (A/Puerto Rico/8/34) infected in MDCK cells assessed as reduction in NP protein level at 1 uM in presence of rCTP by Western blot analysis; format: functional, organism-based
# [44] = Metabolic stability in dog liver microsomes assessed as hepatic extraction ratio preincubated for 5 mins followed by NADPH addition and measured upto 45 mins by LC-MS analysis; format: ADME, Canis lupus familiaris, Microsome; conditions: time < 50 min
# [45] = Metabolic stability in human liver microsomes assessed as hepatic clearance preincubated for 5 mins followed by NADPH addition and measured upto 45 mins by LC-MS analysis; format: ADME, Microsome; conditions: time < 50 min
# Influenza A virus [46] = experiment: Antiviral activity against Influenza A virus H1N1 (A/Puerto Rico/8/34) infected in MDCK cells assessed as reduction in nucleocapsid protein mRNA level by qRT-PCR analysis; format: functional, organism-based; conditions: dose 2-31.3 nM
# [47] = Toxicity in BALB/c mouse assessed as clonic convulsion at 1 g/kg, IG administered 3 times per day and measured for 14 days; conditions: in vivo, po, 1000 mg/kg, 336 h, time 14 day
# [48] = Cmax in Sprague-Dawley rat at 3 mg/kg, iv measured up to 24 hrs by LC-MS analysis; format: ADME, organism-based; conditions: in vivo
# [49] = AUC(0 to t) in Sprague-Dawley rat at 3 mg/kg, iv measured up to 24 hrs by LC-MS analysis; format: ADME, organism-based; conditions: in vivo
# [50] = Toxicity in BALB/c mouse assessed as ruffled fur at 1 g/kg, IG administered 3 times per day and measured for 14 days; conditions: in vivo, po, 1000 mg/kg, 336 h, time 14 day
# [51] = Metabolic stability in mouse liver microsomes assessed as half life preincubated for 5 mins followed by NADPH addition and measured upto 45 mins by LC-MS analysis; format: ADME, Microsome; conditions: time < 50 min
# [52] = Oral bioavailability in Sprague-Dawley rat at 10 mg/kg measured up to 24 hrs by LC-MS analysis; format: ADME, organism-based; conditions: in vivo
# Influenza A virus [53] = experiment: Inhibition of Influenza A virus RdRp activity assessed as reduction in Fluc/Rluc ratio; conditions: dose 0.5-50 µM
compound,measurement,setting,value
CCN(CC)CCOC(=O)c1ccc(N)cc1 [PROCAINE],half-life,[1],0.0187 h
same,Stability,[2],Bld
same,Stability,[3],Unstable
CC(=O)N[C@H]1[C@H]([C@H](O)[C@H](O)CO)OC(C(=O)O)=C[C@@H]1NC(=N)N [ZANAMIVIR],inhibition,Influenza A virus [4],inactive
same,Activity,Influenza A virus [5],Active
same,EC50,Influenza A virus [6],65 nM
CC(C)(C)c1ccc(C(=O)NC(=S)Nc2ccc(NC(=O)c3ccc(C(C)(C)C)cc3)cc2)cc1,Activity,[7],Non-Toxic
same,hepatic extraction ratio at 0.75 h,[8],52.3%
same,half-life,[1],3.2 h
same,Activity,Influenza A virus [9],Dose-Dependent Effect
same,Cmax,[10],1180 ng/mL
same,Activity,Influenza A virus [11],50%
same,Activity,[12],Non-Toxic
same,half-life,[13],1.28 h
same,CLint scaled,[14],55.1 mL/min/kg
same,Activity,Influenza A virus [15],inactive
same,Activity,Influenza A virus [16],Active
same,Tmax,[17],4 h
same,CC50,[18],> 100000 nM
same,Activity,[19],Toxic
same,AUC(0-inf),[20],21900 ng·h/mL
same,Activity,[21],Non-Toxic
same,half-life,[22],1.04 h
same,CLint scaled,[23],102 mL/min/kg
same,AUC(0-t) at 24 h,[24],5420 ng·h/mL
same,Activity,Influenza A virus [25],inactive
same,Activity,Influenza A virus [26],Active
same,CLint scaled,[27],22.7 mL/min/kg
same,hepatic extraction ratio at 0.75 h,[28],53.1%
same,remaining at 2 h,[29],64%
same,half-life,[30],3.69 h
same,clearance,[31],2.29 mL/min/kg
same,CLhep predicted,[32],19.8 mL/min/kg
same,EC50,Influenza A virus [6],1 nM
same,Tmax,[33],4.8 min
same,selectivity ratio,[34],> 120000
same,Activity,Influenza A virus [35],inactive
same,EC50,Influenza B virus [36],50 nM
same,Activity,[37],Non-Toxic
same,AUC(0-inf),[38],5400 ng·h/mL
same,Activity,Influenza A virus [39],Active
same,half-life,[40],3.26 h
same,EC50,Influenza B virus [41],40 nM
same,CLhep predicted,[42],47.8 mL/min/kg
same,Activity,Influenza A virus [43],inactive
same,hepatic extraction ratio at 0.75 h,[44],64.1%
same,CLhep predicted,[45],10.8 mL/min/kg
same,Activity,Influenza A virus [46],Dose-Dependent Effect
same,Activity,[47],Non-Toxic
same,Cmax,[48],41900 ng/mL
same,AUC(0-t) at 24 h,[49],21900 ng·h/mL
same,Activity,[50],Non-Toxic
same,half-life,[51],0.891 h
same,bioavailability,[52],7.38%
same,inhibition,Influenza A virus [53],Dose-Dependent Effect
